The results in this text go back to US11377441B2, “Covalent inhibitors of KRAS” (Araxes Pharma LLC, priority 2017, dated 2022).

This assay concerns the target T1, KRAS G12C 1-169, his-tagged protein, GDP-loaded (Homo sapiens, UniProt P01116, G12C).
T1 construct: KRAS G12C 1-169, his-tagged protein, GDP-loaded
As to the kind of experiment: Biochemical assay: covalent modification of KRAS G12C measured by mass spectrometry (RapidFire/TOF or Q-Exactive). The format is binding. The note with it: covalent binding to (modification of) KRAS G12C after a ten minute incubation period. A digest of the protocol: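 GDP-loaded KRAS G12C 1-169 (his-tagged) at 2 μM or 0.5 μM in 20 mM Hepes, 150 mM NaCl, 1 mM MgCl2, incubated with compound at 100, 30 or 10 μM at room temperature for 10 min, 30 min, 2 h or 24 h, then quenched with formic acid. Intact-protein LC-MS, deconvolved; percent modification from modified versus unmodified protein.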

Consider `C=CC(=O)N1C[C@H](C)N(c2nc(N3CC(N(C)C)C3)nc3c(F)c(-c4cccc5snc(C)c45)c(Cl)cc23)C[C@H]1C` [Compound 157, 1-((2R,5S)-4-(6-chloro-2-(3-(dimethylamino)azetidin-1-yl)-8-fluoro-7-(3-methylbenzo[d]isothia-zol-4-yl)quinazolin-4-yl)-2,5-dimethylpiperazin-1-yl)prop-2-en-1-one], for which the Binding % entry is “+++ (+++ indicates binding activity greater than 80%)”.
To `C=CC(=O)N1C[C@H](C)N(c2nc(N3CC(N(C)C)C3)nc3c(F)c(-c4cccc5c(Cl)n[nH]c45)c(Cl)cc23)C[C@H]1C` [Compound 158, 1-((2R,5S)-4-(6-chloro-7-(3-chloro-1H-indazol-7-yl)-2-(3-(dimethylamino)azetidin-1-yl)-8-fluoroquinazolin-4-yl)-2,5-dimethylpiperazin-1-yl)prop-2-en-1-one] belongs “++ (++ indicates binding activity from 50 to 80%)”; to `C=CC(=O)N1C[C@H](C)N(c2nc(N3CC(N(C)C)C3)nc3c(F)c(-c4c(C(C)C)ccc5[nH]ncc45)c(Cl)cc23)C[C@H]1C` [Compound 159, 1-((2R,5S)-4-(6-chloro-2-(3-(dimethylamino)azetidin-1-yl)-8-fluoro-7-(5-isopropyl-1H-indazol-4-yl)quinazolin-4-yl)-2,5-dimethylpiperazin-1-yl)prop-2-en-1-one], “+ (+ indicates binding activity greater than 0% and up to 50%)”.
In the case of `C=CC(=O)N1C[C@H](C)N(c2nc(OC[C@H]3CCCN3C)nc3c(F)c(-c4c(C)ccc5[nH]nc(C6CC6)c45)c(Cl)cc23)C[C@H]1C` [Compound 160, 1-((2R,5S)-4-(6-chloro-7-(3-cyclopropyl-5-methyl-1H-indazol-4-yl)-8-fluoro-2-(((R)-1-methylpyrrolidin-2-yl)methoxy)quinazolin-4-yl)-2,5-dimethylpiperazin-1-yl)prop-2-en-1-one], the Binding % entry is “+++ (+++ indicates binding activity greater than 80%)”.
To `C=CC(=O)N1C[C@H](C)N(c2nc(OC[C@H]3CCCN3C)nc3c(F)c(-c4c(C)ccc5[nH]nc(C)c45)c(Cl)cc23)C[C@H]1C` [Compound 161, 1-((2R,5S)-4-(6-chloro-7-(3,5-dimethyl-1H-indazol-4-yl)-8-fluoro-2-(((R)-1-methylpyrrolidin-2-yl)methoxy)quinazolin-4-yl)-2,5-dimethylpiperazin-1-yl)prop-2-en-1-one] belongs “+++ (+++ indicates binding activity greater than 80%)”; to `C=CC(=O)N1C[C@H](C)N(c2nc(OC[C@@H]3CCCN3C)nc3c(F)c(-c4c(C)ccc5[nH]nc(C)c45)c(Cl)cc23)C[C@H]1C` [Compound 162, 1-((2R,5S)-4-(6-chloro-7-(3,5-dimethyl-1H-indazol-4-yl)-8-fluoro-2-(((S)-1-methylpyrrolidin-2-yl)methoxy)quinazolin-4-yl)-2,5-dimethylpiperazin-1-yl)prop-2-en-1-one], “+++ (+++ indicates binding activity greater than 80%)”.
In the case of `C=CC(=O)N1C[C@H](C)N(c2nc(OCCN3CCC(F)CC3)nc3c(F)c(-c4c(C)ccc5[nH]nc(C)c45)c(Cl)cc23)C[C@H]1C` [Compound 163, 1-((2R,5S)-4-((S)-6-chloro-7-(3,5-dimethyl-1H-indazol-4-yl)-8-fluoro-2-(2-(4-fluoropiperidin-1-yl)ethoxy)quinazolin-4-yl)-2,5-dimethylpiperazin-1-yl)prop-2-en-1-one], the Binding % result is “+ (+ indicates binding activity greater than 0% and up to 50%)”.
Regarding `C=CC(=O)N1C[C@H](C)N(c2nc(OCCN3CCC(F)CC3)nc3c(F)c(-c4c(C)ccc5[nH]nc(C)c45)c(Cl)cc23)C[C@H]1C` [Compound 164, 1-((2R,5S)-4-((R)-6-chloro-7-(3,5-dimethyl-1H-indazol-4-yl)-8-fluoro-2-(2-(4-fluoropiperidin-1-yl)ethoxy)quinazolin-4-yl)-2,5-dimethylpiperazin-1-yl)prop-2-en-1-one], the Binding % entry is reported as “+++ (+++ indicates binding activity greater than 80%)”.
